Biological target: T1, His6-TEV-PPARγ-(234-505) (Homo sapiens, UniProt P37231)
T1 construct: The His6-TEV-PPARγ-(234-505) protein for assay was expressed and purified; TEV cleavage site (N); made in house
T1 sequence (P37231 234-505): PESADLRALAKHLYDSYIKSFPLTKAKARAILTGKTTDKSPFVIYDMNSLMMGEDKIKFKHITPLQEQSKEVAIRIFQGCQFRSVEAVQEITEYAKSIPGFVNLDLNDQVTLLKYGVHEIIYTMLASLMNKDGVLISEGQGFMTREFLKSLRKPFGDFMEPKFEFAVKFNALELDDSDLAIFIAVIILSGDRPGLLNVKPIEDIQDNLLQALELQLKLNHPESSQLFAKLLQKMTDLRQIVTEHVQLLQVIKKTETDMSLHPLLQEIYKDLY
Assay: TR-FRET Assay to Measure Co-R Peptide Recruitment to PPARγ
Type: biochemical
Conditions: Co-R peptide recruitment to PPARγ; read-out: TR-FRET AC50
Outline: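 Corepressor recruitment is measured by adding terbium-labeled anti-His antibody and FITC SMRT-ID2 peptide, at 5 and 200 nM final, after a 20-minute room-temperature protein–compound incubation. After one further hour, signal is converted to percent response between DMSO and 500 nM T0070907 wells.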

AC50, > 1000 nM:
COc1cc(-c2cc(C(=O)N3CCC(CO)(C(=O)NCc4cccc(Cl)c4)CC3)n[nH]2)c(Cl)cn1 [1-[5-(5-chloro-2-methoxypyridin-4-yl)-1H-pyrazole-3-carbonyl]-N-[(3-chlorophenyl)methyl]-4-(hydroxymethyl)piperidine-4-carboxamide], COCC1(C(=O)NCc2cccc(Cl)c2)CCN(C(=O)c2cc(-c3cc(OC)ncc3Cl)[nH]n2)CC1 [1-[5-(5-chloro-2-methoxypyridin-4-yl)-1H-pyrazole-3-carbonyl]-N-[(3-chlorophenyl)methyl]-4-(methoxymethyl)piperidine-4-carboxamide], COc1cc(-c2cc(C(=O)N3CCC(C#N)(C(=O)NCc4cccc(Cl)c4)CC3)n[nH]2)c(Cl)cn1 [1-[5-(5-chloro-2-methoxypyridin-4-yl)-1H-pyrazole-3-carbonyl]-N-[(3-chlorophenyl)methyl]-4-cyanopiperidine-4-carboxamide], COc1cc(-c2cc(C(=O)N3CCC(OC)(C(=O)NCc4cccc(Cl)c4)CC3)n[nH]2)c(Cl)cn1 [1-[5-(5-chloro-2-methoxypyridin-4-yl)-1H-pyrazole-3-carbonyl]-N-[(3-chlorophenyl)methyl]-4-methoxypiperidine-4-carboxamide], CCC1(CNC(=O)C2CCN(C(=O)c3cc(-c4cc(OC)ncc4Cl)[nH]n3)CC2)COC1 [1-[5-(5-chloro-2-methoxypyridin-4-yl)-1H-pyrazole-3-carbonyl]-N-[(3-ethyloxetane-3-yl)methyl]piperidine-4-carboxamide], COc1cc(-c2cc(C(=O)N3CCC(C(=O)NCC4(F)COC4)CC3)n[nH]2)c(Cl)cn1 [1-[5-(5-chloro-2-methoxypyridin-4-yl)-1H-pyrazole-3-carbonyl]-N-[(3-fluorooxetan-3-yl)methyl]piperidine-4-carboxamide], COc1cc(-c2cc(C(=O)N3CCC(C(=O)NCC4(C)COC4)CC3)n[nH]2)c(Cl)cn1 [1-[5-(5-chloro-2-methoxypyridin-4-yl)-1H-pyrazole-3-carbonyl]-N-[(3-methyloxetan-3-yl)methyl]piperidine-4-carboxamide], COc1cc(-c2cc(C(=O)N3CCC(C(=O)NCC4(C)CCOC4)CC3)n[nH]2)c(Cl)cn1 (stereo not shown) [1-[5-(5-chloro-2-methoxypyridin-4-yl)-1H-pyrazole-3-carbonyl]-N-[(3-methyloxolan-3-yl)methyl]piperidine-4-carboxamide], COc1cc(-c2cc(C(=O)N3CCC(C(=O)NCC4CC(F)(F)C(=O)N4)CC3)n[nH]2)c(Cl)cn1 (stereo not shown) [1-[5-(5-chloro-2-methoxypyridin-4-yl)-1H-pyrazole-3-carbonyl]-N-[(4,4-difluoro-5-oxopyrrolidin-2-yl)methyl]piperidine-4-carboxamide], COc1cc(-c2cc(C(=O)N3CCC(C(=O)NCc4nc(C)c(C)s4)CC3)n[nH]2)c(Cl)cn1 [1-[5-(5-chloro-2-methoxypyridin-4-yl)-1H-pyrazole-3-carbonyl]-N-[(4,5-dimethyl-1,3-thiazol-2-yl)methyl]piperidine-4-carboxamide], COc1cc(-c2cc(C(=O)N3CCC(C(=O)NCc4c(C)cc(C)[nH]c4=O)CC3)n[nH]2)c(Cl)cn1 [1-[5-(5-chloro-2-methoxypyridin-4-yl)-1H-pyrazole-3-carbonyl]-N-[(4,6-dimethyl-2-oxo-1,2-dihydropyridin-3-yl)methyl]piperidine-4-carboxamide], COc1cc(-c2cc(C(=O)N3CCC(C(=O)NCc4cc(Cl)ccn4)CC3)n[nH]2)c(Cl)cn1 [1-[5-(5-chloro-2-methoxypyridin-4-yl)-1H-pyrazole-3-carbonyl]-N-[(4-chloropyridin-2-yl)methyl]piperidine-4-carboxamide], COc1cc(-c2cc(C(=O)N3CCC(C(=O)NCc4cc(C#N)ccn4)CC3)n[nH]2)c(Cl)cn1 [1-[5-(5-chloro-2-methoxypyridin-4-yl)-1H-pyrazole-3-carbonyl]-N-[(4-cyanopyridin-2-yl)methyl]piperidine-4-carboxamide], COc1cc(-c2cc(C(=O)N3CCC(C(=O)NCc4cc(F)ccn4)CC3)n[nH]2)c(Cl)cn1 [1-[5-(5-chloro-2-methoxypyridin-4-yl)-1H-pyrazole-3-carbonyl]-N-[(4-fluoropyridin-2-yl)methyl]piperidine-4-carboxamide], COc1cc(-c2cc(C(=O)N3CCC(C(=O)NCC4(O)CCOCC4)CC3)n[nH]2)c(Cl)cn1 [1-[5-(5-chloro-2-methoxypyridin-4-yl)-1H-pyrazole-3-carbonyl]-N-[(4-hydroxyoxan-4-yl)methyl]piperidine-4-carboxamide], COc1cc(-c2cc(C(=O)N3CCC(C(=O)NCC4CN(C)CCO4)CC3)n[nH]2)c(Cl)cn1 (stereo not shown) [1-[5-(5-chloro-2-methoxypyridin-4-yl)-1H-pyrazole-3-carbonyl]-N-[(4-methylmorpholin-2-yl)methyl]piperidine-4-carboxamide], COc1cc(-c2cc(C(=O)N3CCC(C(=O)NCc4cc(C)ccn4)CC3)n[nH]2)c(Cl)cn1 [1-[5-(5-chloro-2-methoxypyridin-4-yl)-1H-pyrazole-3-carbonyl]-N-[(4-methylpyridine-2-yl)methyl]piperidine-4-carboxamide], COc1cc(-c2cc(C(=O)N3CCC(C(=O)NCc4n[nH]c(=O)c5ccccc45)CC3)n[nH]2)c(Cl)cn1 [1-[5-(5-chloro-2-methoxypyridin-4-yl)-1H-pyrazole-3-carbonyl]-N-[(4-oxo-3,4-dihydrophthalazin-1-yl)methyl]piperidine-4-carboxamide], COc1cc(-c2cc(C(=O)N3CCC(C(=O)N[C@@H]4CCOc5c(F)ccc(F)c54)CC3)n[nH]2)c(Cl)cn1 [1-[5-(5-chloro-2-methoxypyridin-4-yl)-1H-pyrazole-3-carbonyl]-N-[(4R)-5,8-difluoro-3,4-dihydro-2H-1-benzopyran-4-yl]piperidine-4-carboxamide], COc1cc(-c2cc(C(=O)N3CCC(C(=O)NCc4noc(C)n4)CC3)n[nH]2)c(Cl)cn1 [1-[5-(5-chloro-2-methoxypyridin-4-yl)-1H-pyrazole-3-carbonyl]-N-[(5-methyl-1,2,4-oxadiazol-3-yl)methyl]piperidine-4-carboxamide], COc1cc(-c2cc(C(=O)N3CCC(C(=O)NCc4cc(C)on4)CC3)n[nH]2)c(Cl)cn1 [1-[5-(5-chloro-2-methoxypyridin-4-yl)-1H-pyrazole-3-carbonyl]-N-[(5-methyl-1,2-oxazol-3-yl)methyl]piperidine-4-carboxamide], COc1cc(-c2cc(C(=O)N3CCC(C(=O)NCc4cnc(C)cn4)CC3)n[nH]2)c(Cl)cn1 [1-[5-(5-chloro-2-methoxypyridin-4-yl)-1H-pyrazole-3-carbonyl]-N-[(5-methylpyrazin-2-yl)methyl]piperidine-4-carboxamide]

From US12606541B2, “PPARg modulators and methods of use” (Eisai R&D Management Co., Ltd., priority 2020, dated 2026)
